Values joined by “and” are separate entries in the source; they are usually repeats but may differ in a detail not shown here. Equal values may be shown once. Read-outs that look alike come from different tables or passages of the source. Where no end group is shown, it is not given here.

Data on 1 sequence can be found in US20240252586A1, “ENGINEERED ANTIMICROBIAL PEPTIDES AND USAGE THEREOF” (priority 2021, published 2024).

The test system of assay [1] is P. aeruginosa CDC 0515. Particulars: RPMI. On the procedure:
FIC test ranges were set based on broth microdilution MIC test data. FIC assay plates were prepared in accordance with CLSI guidelines for broth microdilution susceptibility testing; automated liquid handlers, and multi-channel pipettes were used to conduct serial dilutions and liquid transfers.
SEQ ID NO: 1 was tested at two concentration ranges depending on the test media. All organisms tested in CAMHB 0.002% P-80 were tested from 0.015-16 μg/mL; when tested in RPMI 0.002% P-80, the range tested was 0.004-4 μg/mL. For each SEQ ID NO: 1 mother, wells across the standard 96-well microdilution plate were filled with 150 μL of sterile saline 0.002% P-80 in columns 2 through 12. A 300 μL aliquot at 20× the highest final concentration of each dilution range to be tested, was added to each well in column 1 of the plate. The Biomek 3000 was used to make eleven 2-fold serial dilutions horizontally across each row of the plate columns 2 through 11.
The daughter plates were then completed using the Biomek FX to transfer 5 μL of drug solution from each well of the SEQ ID NO: 1 mother plates to the corresponding well in each daughter plate in a single step. […] The preparation of the daughter plates was performed for each media type; two times in total as all organisms were tested in both media types.
A standard inoculum for each organism was prepared per CLSI method. Colonies were picked up from the primary plate and a suspension was prepared equal to 0.5 McFarland turbidity standard. The suspensions were additionally diluted 1:10 in the appropriate broth. A 10 μL standardized inoculum was delivered into each well using the Biomek 3000 from low to high concentration. These inoculations yielded a final cell concentration in the daughter plates of approximately 5×10^5 CFU/mL in each well. […] Exemplary checkboard panels are seen in Table 5 and Table 6. Plates were incubated at 35° C. for 16-20 hr.
The MIC of the horizontal agent (row H) and the MIC of the vertical agent (column 12) were recorded and the wells of the growth-no growth interface for wells containing agents in combination at varying ratios were recorded by row. […] Pinpoint trailing was not interpreted as growth.
For each relevant row of the panel, the FICI was calculated as:
FICdrug A/MICdrug A+FICdrug B/MICdrug=FICI
Mean FICI values were determined for each combination tested by averaging the FICI values as observed on each row of the checkerboard assay (See Table 9, e.g., if there were FICI values for B-G, those FICI values were added together and divided by the number of rows the FICI values which in this case is 6 to get the mean FICI value for that combination).
Using the criteria described by: Odds FC. 2003. Synergy, antagonism, and what the chequerboard puts between them. J Antimicrob Chemother 52(1):1, the mean FICI for the combination was interpreted as follows: ≤0.5=synergy, >0.5-4=additive/indifferent, and >4=antagonism. […] An interpretation of indifference is consistent with growth inhibition at concentrations at or slightly below/above the MICs of the individual agents alone, resulting in a FICI value of >0.5 but […].

In assay [2] the test system is P. aeruginosa. Description: Broth microdilution MIC, PJI isolates (Example 1). It counts as cell-based, Pseudomonas aeruginosa. The note with it: RPMI; N = 20. As for the experimental part:
Imipenem, levofloxacin, tigecycline, linezolid, vancomycin, oxacillin, ceftazidime, colistin, and amikacin were tested as comparators. Testing was conducted in accordance with guidelines from the Clinical and Laboratory Standards Institute (CLSI; M7 and M100). Test organisms comprised reference strains from the American Type Culture Collection, the Centers for Disease Control Antibiotic Reference Bank and clinical isolates from the Micromyx repository.

Assay [3] relates to E. Coli CDC 0451. On the procedure:
(§1) SEQ ID NO: 1 stocks were made at 5.12 mg/mL in water adjusted to pH of 5.0 with 1% glacial acetic acid.
(§2) The test organisms (Table 7) consisted of clinical isolates from the Micromyx (MMX) repository, a reference isolate from the American Type Culture Collection (ATCC, Manassas, VA) and the Centers for Disease Control (CDC, Atlanta GA). Upon initial receipt, the isolates were streaked under suitable conditions onto agar medium appropriate to each organism. The organisms were incubated for 18-24 hr at 35° C. in ambient atmosphere. Colonies harvested from these growth plates were resuspended in the appropriate medium containing a cryoprotectant. Aliquots of each suspension were then stored frozen at −80° C. Prior to testing, all organisms were cultured onto trypticase soy agar containing 5% sheep blood. The agar plates were incubated as described above.
(§3) The Test media used for MIC and FIC were testing were cation-adjusted Mueller-Hinton broth (CAMHB) and Roswell Park Memorial Institute (RPMI-1640), buffered with 3-(N-morpholino)propanesulfonic acid (MOPS). Each test media was supplemented with 0.002% Tween-80 (P-80) prior to testing.
(§4) MIC assay plates were prepared for broth microdilution in accordance with guidelines from the Clinical and Laboratory Standards Institute (CLSI); automated liquid handlers (Biomek 3000 and Biomek FX) and multi-channel pipettes were used to conduct serial dilutions and liquid transfers. MIC assay plates were prepared using a 96-well, deep-well microdilution plate that mimicked the layout of the daughter plates.
(§5) For the mother plate, wells across the standard 96-well microdilution plate were filled with 150 μL of sterile saline 0.002% P-80 in columns 2 through 12. […] The Biomek 300 was used to make eleven 2-fold serial dilutions horizontally across each row of the plate from columns 2 through 11. The Biomek FX was then used to transfer 5 μL of the SEQ ID NO: 1 and saline 0.002% P-80 to the daughter plates.
(§6) A standardized inoculum of each organism was prepared per CLSI methods. Suspensions were prepared to equal a 0.5 McFarland standard followed by a 1:10 dilution into test medium. The inocula were dispensed into sterile reservoirs divided by length and the Biomek 3000 was used to inoculate the plates. Daughter plates were placed on the Biomek 3000 work surface in reverse orientation so that inoculation took place from low to high drug concentration. The Biomek 3000 delivered 10 μL of the diluted suspension into each well. These inoculations yielded a final cell concentration in the daughter plates of approximately 5×10^5 CFU/mL in each well. Plates were incubated at 35° C. for 16-20 hr. The microplates were viewed from the bottom using a plate viewer and the MIC was recorded as the lowest concentration of drug that inhibited visible growth of the organism.

Assay [4] deals with S. aureus NRS 384. On the procedure:
as §1, §2, §3, §4, §5, §6

The subject of assay [5] is P. aeruginosa CDC 0515. On the procedure: as §1, §2, §3, §4, §5, §6
In assay [6] the test system is E. Coli ATCC BAA-2469. On the procedure: as §1, §2, §3, §4, §5, §6
Assay [7] concerns S. epidermidis MMX 3628. On the procedure: as §1, §2, §3, §4, §5, §6
The subject of assay [8] is S. epidermidis MMX 8655. On the procedure:
as §1, §2, §3, §4, §5, §6

For RRWVRRVRRVWRRVVRVVRRWVRR [SEQ ID NO: 1], the FICI came out at 2.5 in assay [1] (checkerboard row A, with Sodium Bicarbonate at 100); 2.25 in assay [1] (checkerboard row B, with Sodium Bicarbonate at 50); 1.125 in assay [1] (checkerboard row C, with Sodium Bicarbonate at 25). In addition, in assay [2], the MIC50 was found to be 1 µg/mL. This sequence also gave an MIC90 in assay [2] of 1 µg/mL. Moreover, the MIC is 1 µg/mL and 2 µg/mL in assay [3] (CAMHB); 0.5 µg/mL in assay [3] (RPMI); 4 µg/mL in assay [4] (CAMHB); 0.5 µg/mL in assay [4] (RPMI); 8 µg/mL in assay [5] (CAMHB); 1 µg/mL in assay [5] (RPMI). For the same sequence, the minimum inhibitory concentration (MIC) was 4 µg/mL in assay [6] (CAMHB); 0.5 µg/mL in assay [6] (RPMI); 0.25 µg/mL in assay [7] (CAMHB); 0.12 µg/mL in assay [7] (RPMI); 0.5 µg/mL in assay [8] (CAMHB); 0.12 µg/mL in assay [8] (RPMI). In assay [8] (stated in FIG. 3 legends (time-kill)), this sequence registered an MIC of 1 µg/mL.

What is called MIC50 is the lowest concentration that inhibits either 50% of growth or 50% of the strains tested, depending on the study. In general, MIC90 refers to the lowest concentration that inhibits either 90% of growth or 90% of the strains tested, depending on the study. Read a low MIC90 as higher susceptibility. Broadly, the MIC is the lowest concentration found to suppress growth. The low end stands for greater potency, the high end for weaker potency.
